Measurements taken from the NIST ThermoML archive (doi:10.1021/acs.jced.6b00121).

Assay: xn = mol fraction of the nth substance listed
Conditions: 100 kPa, Liquid; for viscosity: Falling or rolling sphere viscometry; for mass density: Vibrating tube method

CCCCCCCCCCC [undecane] + CCCCCCO
Conditions	mass density [kg/m3]	viscosity [mPa·s]
283.15 K, x1 = 0.1011	812.86	5.655
283.15 K, x1 = 0.1989	802.1	4.274
283.15 K, x1 = 0.2998	792.19	3.34
283.15 K, x1 = 0.4001	783.5	2.615
283.15 K, x1 = 0.4994	775.87	2.198
283.15 K, x1 = 0.6004	768.89	1.95
283.15 K, x1 = 0.6989	762.82	1.72
283.15 K, x1 = 0.8001	757.18	1.564
283.15 K, x1 = 0.8991	752.28	1.455
283.15 K, x1 = 1	747.78	1.371
288.15 K, x1 = 0.1011	809.29	4.784
288.15 K, x1 = 0.1989	798.49	3.651
288.15 K, x1 = 0.2998	788.53	2.88
288.15 K, x1 = 0.4001	779.81	2.322
288.15 K, x1 = 0.4994	772.18	2.019
288.15 K, x1 = 0.6004	765.18	1.752
288.15 K, x1 = 0.6989	759.1	1.554
288.15 K, x1 = 0.8001	753.47	1.419
288.15 K, x1 = 0.8991	748.57	1.329
288.15 K, x1 = 1	744.06	1.249
293.15 K, x1 = 0.1011	805.71	4.073
293.15 K, x1 = 0.1989	794.85	3.136
293.15 K, x1 = 0.2998	784.85	2.505
293.15 K, x1 = 0.4001	776.12	2.118
293.15 K, x1 = 0.4994	768.47	1.808
293.15 K, x1 = 0.6004	761.46	1.58
293.15 K, x1 = 0.6989	755.38	1.41
293.15 K, x1 = 0.8001	749.75	1.293
293.15 K, x1 = 0.8991	744.85	1.218
293.15 K, x1 = 1	740.35	1.145
298.15 K, x1 = 0.1011	802.1	3.494
298.15 K, x1 = 0.1989	791.2	2.719
298.15 K, x1 = 0.2998	781.16	2.198
298.15 K, x1 = 0.4001	772.4	1.886
298.15 K, x1 = 0.4994	764.75	1.626
298.15 K, x1 = 0.6004	757.73	1.432
298.15 K, x1 = 0.6989	751.65	1.284
298.15 K, x1 = 0.8001	746.02	1.182
298.15 K, x1 = 0.8991	741.12	1.116
298.15 K, x1 = 1	736.64	1.062
303.15 K, x1 = 0.1011	798.47	3.016
303.15 K, x1 = 0.1989	787.52	2.374
303.15 K, x1 = 0.2998	777.45	1.952
303.15 K, x1 = 0.4001	768.67	1.687
303.15 K, x1 = 0.4994	761.01	1.47
303.15 K, x1 = 0.6004	753.98	1.305
303.15 K, x1 = 0.6989	747.89	1.176
303.15 K, x1 = 0.8001	742.27	1.09
303.15 K, x1 = 0.8991	737.38	1.031
303.15 K, x1 = 1	732.93	0.982
308.15 K, x1 = 0.1011	794.81	2.62
308.15 K, x1 = 0.1989	783.82	2.09
308.15 K, x1 = 0.2998	773.71	1.746
308.15 K, x1 = 0.4001	764.91	1.517
308.15 K, x1 = 0.4994	757.24	1.334
308.15 K, x1 = 0.6004	750.21	1.193
308.15 K, x1 = 0.6989	744.12	1.08
308.15 K, x1 = 0.8001	738.5	1.002
308.15 K, x1 = 0.8991	733.62	0.954
308.15 K, x1 = 1	729.23	0.91
313.15 K, x1 = 0.1011	791.12	2.29
313.15 K, x1 = 0.1989	780.08	1.857
313.15 K, x1 = 0.2998	769.94	1.574
313.15 K, x1 = 0.4001	761.13	1.372
313.15 K, x1 = 0.4994	753.45	1.226
313.15 K, x1 = 0.6004	746.41	1.106
313.15 K, x1 = 0.6989	740.32	0.996
313.15 K, x1 = 0.8001	734.71	0.927
313.15 K, x1 = 0.8991	729.84	0.886
313.15 K, x1 = 1	725.53	0.847
318.15 K, x1 = 0.1011	787.39	2.02
318.15 K, x1 = 0.1989	776.31	1.664
318.15 K, x1 = 0.2998	766.14	1.437
318.15 K, x1 = 0.4001	757.31	1.245
318.15 K, x1 = 0.4994	749.63	1.1
318.15 K, x1 = 0.6004	742.59	1.008
318.15 K, x1 = 0.6989	736.5	0.921
318.15 K, x1 = 0.8001	730.9	0.861
318.15 K, x1 = 0.8991	726.05	0.822
318.15 K, x1 = 1	721.82	0.79
323.15 K, x1 = 0.1011	783.63	1.799
323.15 K, x1 = 0.1989	772.51	1.528
323.15 K, x1 = 0.2998	762.31	1.301
323.15 K, x1 = 0.4001	753.47	1.136
323.15 K, x1 = 0.4994	745.77	1.011
323.15 K, x1 = 0.6004	738.74	0.931
323.15 K, x1 = 0.6989	732.65	0.853
323.15 K, x1 = 0.8001	727.06	0.801
323.15 K, x1 = 0.8991	722.24	0.773
323.15 K, x1 = 1	718.11	0.74
328.15 K, x1 = 0.1011	779.82	1.612
328.15 K, x1 = 0.1989	768.66	1.374
328.15 K, x1 = 0.2998	758.44	1.18
328.15 K, x1 = 0.4001	749.58	1.039
328.15 K, x1 = 0.4994	741.89	0.93
328.15 K, x1 = 0.6004	734.86	0.862
328.15 K, x1 = 0.6989	728.77	0.793
328.15 K, x1 = 0.8001	723.2	0.747
328.15 K, x1 = 0.8991	718.41	0.724
328.15 K, x1 = 1	714.39	0.692
333.15 K, x1 = 0.1011	775.97	1.466
333.15 K, x1 = 0.1989	764.78	1.24
333.15 K, x1 = 0.2998	754.53	1.073
333.15 K, x1 = 0.4001	745.66	0.955
333.15 K, x1 = 0.4994	737.97	0.859
333.15 K, x1 = 0.6004	730.93	0.801
333.15 K, x1 = 0.6989	724.87	0.738
333.15 K, x1 = 0.8001	719.31	0.699
333.15 K, x1 = 0.8991	714.55	0.681
333.15 K, x1 = 1	710.68	0.651
338.15 K, x1 = 0.1011	772.08	1.318
338.15 K, x1 = 0.1989	760.84	1.124
338.15 K, x1 = 0.2998	750.57	0.982
338.15 K, x1 = 0.4001	741.7	0.878
338.15 K, x1 = 0.4994	734.01	0.796
338.15 K, x1 = 0.6004	726.99	0.744
338.15 K, x1 = 0.6989	720.93	0.691
338.15 K, x1 = 0.8001	715.39	0.656
338.15 K, x1 = 0.8991	710.68	0.641
338.15 K, x1 = 1	706.95	0.615
343.15 K, x1 = 0.1011	768.13	1.189
343.15 K, x1 = 0.1989	756.86	1.025
343.15 K, x1 = 0.2998	746.58	0.901
343.15 K, x1 = 0.4001	737.7	0.811
343.15 K, x1 = 0.4994	730.01	0.739
343.15 K, x1 = 0.6004	723	0.695
343.15 K, x1 = 0.6989	716.95	0.647
343.15 K, x1 = 0.8001	711.44	0.616
343.15 K, x1 = 0.8991	706.79	0.604
343.15 K, x1 = 1	703.22	0.58
348.15 K, x1 = 0.1011	764.12	1.054
348.15 K, x1 = 0.1989	752.83	0.934
348.15 K, x1 = 0.2998	742.54	0.828
348.15 K, x1 = 0.4001	733.66	0.75
348.15 K, x1 = 0.4994	725.98	0.687
348.15 K, x1 = 0.6004	718.97	0.652
348.15 K, x1 = 0.6989	712.94	0.607
348.15 K, x1 = 0.8001	707.47	0.58
348.15 K, x1 = 0.8991	702.87	0.571
348.15 K, x1 = 1	699.47	0.549
353.15 K, x1 = 0.1011	760.07	0.981
353.15 K, x1 = 0.1989	748.76	0.855
353.15 K, x1 = 0.2998	738.45	0.765
353.15 K, x1 = 0.4001	729.57	0.696
353.15 K, x1 = 0.4994	721.9	0.642
353.15 K, x1 = 0.6004	714.9	0.611
353.15 K, x1 = 0.6989	708.9	0.572
353.15 K, x1 = 0.8001	703.47	0.546
353.15 K, x1 = 0.8991	698.94	0.54
353.15 K, x1 = 1	695.72	0.522
358.15 K, x1 = 0.1011	755.96	0.895
358.15 K, x1 = 0.1989	744.62	0.787
358.15 K, x1 = 0.2998	734.31	0.707
358.15 K, x1 = 0.4001	725.43	0.649
358.15 K, x1 = 0.4994	717.76	0.6
358.15 K, x1 = 0.6004	710.79	0.573
358.15 K, x1 = 0.6989	704.82	0.54
358.15 K, x1 = 0.8001	699.43	0.516
358.15 K, x1 = 0.8991	694.99	0.512
358.15 K, x1 = 1	691.96	0.497
363.15 K, x1 = 0.1011	751.78	0.82
363.15 K, x1 = 0.1989	740.43	0.726
363.15 K, x1 = 0.2998	730.12	0.657
363.15 K, x1 = 0.4001	721.24	0.605
363.15 K, x1 = 0.4994	713.59	0.562
363.15 K, x1 = 0.6004	706.64	0.54
363.15 K, x1 = 0.6989	700.7	0.512
363.15 K, x1 = 0.8001	695.37	0.49
363.15 K, x1 = 0.8991	691.02	0.487
363.15 K, x1 = 1	688.18	0.475
